Our source for the MIC values is ChEMBL document CHEMBL1129860, “Studies on penam sulfones III. Synthesis and -lactamase inhibitory activity of sodium (6R)-6-(-hydroxybenzyl)-2-methoxyiminomethyl-2-methylpenam-3-carboxylate 1,1-dioxide and sodium 2-acyl-2-methylpenam-3-carboxylate 1,1-dioxide” (1997).

Assay [1] has as its system Pseudomonas aeruginosa. Description: microbe, parasite or virus in culture.
In assay [2] the test system is Morganella morganii. The assay can be described thus: In vitro minimal inhibitory concentration (MIC) of compound in combination with Ceftazidime (CAZ) showed synergic activity against Morganella morganii 36014. As to conditions: Morganella morganii; read-out: MIC. It counts as functional.
For assay [3], the system named is Pseudomonas aeruginosa. The assay can be described thus: microbe, parasite or virus in culture. This is another data set of the same source.
Assay [4] deals with Klebsiella aerogenes. The assay can be described thus: In vitro minimal inhibitory concentration (MIC) of compound in combination with Ceftazidime (CAZ) showed synergic activity against Enterobacter aerogenes S-97. It is filed as functional.
The subject of assay [5] is Morganella morganii. The assay can be described thus: In vitro minimal inhibitory concentration (MIC) of compound in combination with Ceftazidime (CAZ) showed synergic activity against Morganella morganii 36030. It counts as functional.
In assay [6] the test system is Enterobacter cloacae. The assay can be described thus: In vitro minimal inhibitory concentration (MIC) of compound in combination with Ceftazidime (CAZ) showed synergic activity against Enterobacter cloacae S-65. It is filed as functional.
The test system of assay [7] is Enterobacter cloacae. The assay can be described thus: In vitro minimal inhibitory concentration (MIC) of compound in combination with Ceftazidime (CAZ) showed synergic activity against Enterobacter cloacae S-11. It is filed as functional.
For assay [8], the system named is Staphylococcus aureus. The assay can be described thus: In vitro minimal inhibitory concentration (MIC) of compound in combination with piperacillin (PIPC) showed synergic activity against Staphylococcus aureus 54K. It is filed as functional.
The test system of assay [9] is Enterobacter cloacae. The assay can be described thus: In vitro minimal inhibitory concentration (MIC) of compound in combination with piperacillin (PIPC) showed synergic activity against Enterobacter cloacae 40015. It is filed as functional.
Assay [10] concerns Klebsiella aerogenes. Description: In vitro minimal inhibitory concentration (MIC) of compound in combination with piperacillin (PIPC) showed synergic activity against Enterobacter aerogenes 41004. It is filed as functional.
Assay [11] relates to Pseudomonas aeruginosa. The assay can be described thus: In vitro minimal inhibitory concentration (MIC) of compound in combination with piperacillin (PIPC) showed synergic activity against Pseudomonas aeruginosa 46220 (DR-2). It is filed as functional.
The test system of assay [12] is Citrobacter freundii. Description: In vitro minimal inhibitory concentration (MIC) of compound in combination with piperacillin (PIPC) showed synergic activity against Citrobacter freundii 44032. It counts as functional.
For a further assay, the system named is Proteus vulgaris. Description: In vitro minimal inhibitory concentration (MIC) of compound in combination with piperacillin (PIPC) showed synergic activity against Proteus vulgaris CT 106. It is filed as functional.
Assay [13] concerns Escherichia coli. Description: In vitro minimal inhibitory concentration (MIC) of compound in combination with piperacillin (PIPC) showed synergic activity against Escherichia coli TEM 7. It is filed as functional.
Assay [14] deals with Morganella morganii. Description: In vitro minimal inhibitory concentration (MIC) of compound in combination with piperacillin (PIPC) showed synergic activity against Morganella morganii 36014. It is filed as functional.
Assay [15] relates to Escherichia coli. Description: In vitro minimal inhibitory concentration (MIC) of compound in combination with piperacillin (PIPC) showed synergic activity against Escherichia coli SHV 5. It is filed as functional.
The subject of a further assay is Klebsiella pneumoniae. Description: In vitro minimal inhibitory concentration (MIC) of compound in combination with piperacillin (PIPC) showed synergic activity against Klebsiella pneumoniae CTX 1. It is filed as functional.
Assay [16] has as its system Escherichia coli. Description: In vitro minimal inhibitory concentration (MIC) of compound in combination with piperacillin (PIPC) showed synergic activity against Escherichia coli OXA 3. It counts as functional.
In a further assay the test system is Serratia marcescens. Description: In vitro minimal inhibitory concentration (MIC) of compound in combination with piperacillin (PIPC) showed synergic activity against Serratia marcescens 200 L. It is filed as functional.
The subject of assay [17] is Escherichia coli. The assay can be described thus: In vitro minimal inhibitory concentration (MIC) of compound in combination with piperacillin (PIPC) showed synergic activity against Escherichia coli OXA 1. It counts as functional.
Assay [18] concerns Escherichia coli. The assay can be described thus: In vitro minimal inhibitory concentration (MIC) of compound in combination with piperacillin (PIPC) showed synergic activity against Escherichia coli TEM 3. It is filed as functional.
The test system of assay [19] is Staphylococcus aureus. Description: In vitro minimal inhibitory concentration (MIC) of compound in combination with piperacillin (PIPC) showed synergic activity against Staphylococcus aureus 80K. It is filed as functional.
The subject of assay [20] is Klebsiella aerogenes. The assay can be described thus: In vitro minimal inhibitory concentration (MIC) of compound in combination with piperacillin (PIPC) showed synergic activity against Enterobacter aerogenes 41003. It is filed as functional.
In assay [21] the test system is Escherichia coli. Description: In vitro minimal inhibitory concentration (MIC) of compound in combination with piperacillin (PIPC) showed synergic activity against Escherichia coli SHV 1. It counts as functional.
Assay [22] has as its system Enterobacter cloacae. The assay can be described thus: In vitro minimal inhibitory concentration (MIC) of compound in combination with piperacillin (PIPC) showed synergic activity against Enterobacter cloacae 40011. It counts as functional.
Assay [23] has as its system Citrobacter freundii. The assay can be described thus: In vitro minimal inhibitory concentration (MIC) of compound in combination with piperacillin (PIPC) showed synergic activity against Citrobacter freundii 2046E. It counts as functional.
For assay [24], the system named is Klebsiella aerogenes. Description: In vitro minimal inhibitory concentration (MIC) of compound in combination with piperacillin (PIPC) showed synergic activity against Enterobacter aerogenes 41006. It counts as functional.
In assay [25] the test system is Enterobacter cloacae. The assay can be described thus: In vitro minimal inhibitory concentration (MIC) of compound in combination with piperacillin (PIPC) showed synergic activity against Enterobacter cloacae P99. It counts as functional.

Consider `CC(C)(O/N=C(\C(=O)NC1C(=O)N2C(C(=O)[O-])=C(C[n+]3ccccc3)CSC12)c1csc(N)n1)C(=O)O.CO/N=C/[C@@]1(C)[C@H](C(=O)[O-])N2C(=O)CC2S1(=O)=O.[Na+]` (centres undefined), for which the MIC with Pseudomonas aeruginosa [1] was 16 µg/mL; in the assay with Morganella morganii [2], below 0.25 µg/mL; with Pseudomonas aeruginosa [3], 32 µg/mL; with Klebsiella aerogenes [4], 0.5 µg/mL; with Morganella morganii [5], below 0.25 µg/mL; in the assay with Enterobacter cloacae [6] it was below 0.25 µg/mL. Also, in the assay with Enterobacter cloacae [7], the MIC is below 0.25 µg/mL.
`CCN1CCN(C(=O)NC(C(=O)N[C@@H]2C(=O)N3[C@@H]2SC(C)(C)[C@@H]3C(=O)O)c2ccccc2)C(=O)C1=O.C[C@]1(Cn2ccnn2)[C@H](C(=O)[O-])N2C(=O)CC2S1(=O)=O.[Na+]` (some centres undefined): the MIC with Staphylococcus aureus [8] turned out to be 0.78 µg/mL; with Enterobacter cloacae [9], 50 µg/mL; in the assay with Klebsiella aerogenes [10], 12.5 µg/mL; in the assay with Pseudomonas aeruginosa [11], 12.5 µg/mL; with Citrobacter freundii [12], 200 µg/mL; with Proteus vulgaris, 1.56 µg/mL. Further, the MIC in the assay with Escherichia coli [13] was 0.78 µg/mL; in the assay on Morganella morganii [14], at most 0.2 µg/mL; in the assay on Escherichia coli [15] it was at most 0.2 µg/mL; with Klebsiella pneumoniae it was 6.25 µg/mL; in the assay with Escherichia coli [16], 1.56 µg/mL; in the assay on Serratia marcescens, 0.78 µg/mL. The MIC stood at 3.13 µg/mL in the assay on Escherichia coli [17]; 3.13 µg/mL in the assay with Escherichia coli [18]; 0.39 µg/mL in the assay with Staphylococcus aureus [19]; 12.5 µg/mL with Klebsiella aerogenes [20]; 1.56 µg/mL with Escherichia coli [21]; 6.25 µg/mL in the assay on Enterobacter cloacae [22]. The MIC is 0.78 µg/mL with Citrobacter freundii [23], 100 µg/mL in the assay on Klebsiella aerogenes [24] and 25 µg/mL in the assay on Enterobacter cloacae [25].
In the case of `CC(=O)[C@@]1(C)[C@H](C(=O)[O-])N2C(=O)CC2S1(=O)=O.CCN1CCN(C(=O)NC(C(=O)N[C@@H]2C(=O)N3[C@@H]2SC(C)(C)[C@@H]3C(=O)O)c2ccccc2)C(=O)C1=O.[Na+]` (some centres undefined), the MIC in the assay on Staphylococcus aureus [8] came to 6.26 µg/mL; in the assay on Enterobacter cloacae [9] it was 25 µg/mL; in the assay with Klebsiella aerogenes [10] it was 6.25 µg/mL; with Pseudomonas aeruginosa [11], 6.25 µg/mL; in the assay on Citrobacter freundii [12], 12.5 µg/mL; in the assay on Proteus vulgaris, 25 µg/mL. Moreover, the MIC in the assay on Escherichia coli [13] was 1.56 µg/mL; with Morganella morganii [14] it was 0.39 µg/mL; in the assay on Escherichia coli [15], 1.56 µg/mL; in the assay on Klebsiella pneumoniae, 12.5 µg/mL; in the assay with Escherichia coli [16] it was 1.56 µg/mL; in the assay on Serratia marcescens, 3.13 µg/mL. Also, the MIC with Escherichia coli [17] is 1.56 µg/mL; in the assay on Escherichia coli [18] it was 3.13 µg/mL; in the assay with Staphylococcus aureus [19] it was 3.13 µg/mL; in the assay with Klebsiella aerogenes [20] it was 3.13 µg/mL; in the assay with Escherichia coli [21], 3.13 µg/mL; in the assay with Enterobacter cloacae [22], 6.25 µg/mL. The MIC with Citrobacter freundii [23] turned out to be 1.56 µg/mL; in the assay with Klebsiella aerogenes [24] it was 12.5 µg/mL; with Enterobacter cloacae [25], 12.5 µg/mL.
